Legend:
[1] = system: TNBS-induced colitis in mice; assay: TNBS-induced colitis in mice; type: in vivo; parameters: Ulcer grade / LP inflammation: scale not given here; details: Experiment 1, 2.5 mg/kg oral BID, 2 days
Description: On Day 0 of the study TNBS (200 μL) is administered intra-colonically via a plastic catheter followed by BID dosing of the vehicle, reference or test compound for 2 or 4 days. During the study animals are weighed every day and stool observations are made and recorded as a score, based on stool consistency. At the time of sacrifice on Day 2 (or Day 4) the large intestine is removed and the length and weight recorded. Sections of the colon are taken for either MPO analysis to determine neutrophil infiltration or for histopathology involving scoring to determine disease severity.

GSK3α = GSK3α (Homo sapiens (Human), UniProt P49840); assay: GSK 3α enzyme inhibition (Method 2), Z-LYTE FRET; type: biochemical
Chain of GSK3α (P49840 whole entry): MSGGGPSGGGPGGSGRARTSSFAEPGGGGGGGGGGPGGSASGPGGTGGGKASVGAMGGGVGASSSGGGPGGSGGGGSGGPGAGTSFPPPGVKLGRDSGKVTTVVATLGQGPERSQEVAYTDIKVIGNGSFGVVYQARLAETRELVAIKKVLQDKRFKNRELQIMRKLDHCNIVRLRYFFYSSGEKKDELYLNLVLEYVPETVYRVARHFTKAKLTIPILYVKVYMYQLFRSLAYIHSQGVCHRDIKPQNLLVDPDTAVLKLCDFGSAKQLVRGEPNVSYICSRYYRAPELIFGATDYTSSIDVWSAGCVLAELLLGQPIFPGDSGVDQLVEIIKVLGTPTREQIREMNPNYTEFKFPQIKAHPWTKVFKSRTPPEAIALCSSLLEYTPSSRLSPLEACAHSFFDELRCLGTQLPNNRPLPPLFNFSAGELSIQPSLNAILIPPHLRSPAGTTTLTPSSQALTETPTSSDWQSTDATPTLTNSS
Description: (§1) The enzyme inhibitory activities of compounds disclosed herein are determined by FRET using synthetic peptides labelled with both donor and acceptor fluorophores (Z-LYTE, Invitrogen Ltd., Paisley, UK).
The inhibitory activities of compounds of the invention against the GSK 3α enzyme isoform (Invitrogen), are evaluated by determining the level of activation/phosphorylation of the target peptide. The GSK3-α protein (500 ng/mL, 2.5 μL) is mixed with the test compound (2.5 μL at either 4 μg/mL, 0.4 μg/mL, 0.04 μg/mL, or 0.004 μg/mL) for 2 hr at RT. The FRET peptide (8 μM, 2.5 μL), which is a phosphorylation target for GSK3α, and ATP (40 μM, 2.5 μL) are then added to the enzyme/compound mixture and the resulting mixture incubated for 1 hr. Development reagent (protease, 5 μL) is added for 1 hr prior to detection in a fluorescence microplate reader (Varioskan® Flash, ThermoFisher Scientific).
(§2) In all cases, the site-specific protease cleaves non-phosphorylated peptide only and eliminates the FRET signal. Phosphorylation levels of each reaction are calculated using the ratio of coumarin emission (donor) over fluorescein emission (acceptor), for which high ratios indicate high phosphorylation and low ratios indicate low phosphorylation levels. The percentage inhibition of each reaction is calculated relative to non-inhibited control and the 50% inhibitory concentration (IC50 value) is then calculated from the concentration-response curve.
This method follows the same steps as Method 1 above, but utilises a shorter period of mixing of the test compound (105 minutes instead of 2 hours) with the GSK3-α protein.

PBMCs [2] = assay: LPS-induced TNFα/IL-8 release in PBMC cells; type: cell-based; details: Homo sapiens, LPS-stimulated PBMCs, IL-8, read-out: IC50 Values for Inhibition of Cytokine Release PBMCs IL-8
Description: Peripheral blood mononuclear cells (PBMCs) from healthy subjects are separated from whole blood using a density gradient (Lymphoprep, Axis-Shield Healthcare). The PBMCs are seeded in 96 well plates and treated with compounds at the desired concentration for 2 hours before addition of 1 ng/mL LPS (Escherichia Coli 0111:B4 from Sigma Aldrich) for 24 hours under normal tissue culture conditions (37° C., 5% CO2). The supernatant is harvested for determination of IL-8 and TNFα concentrations by sandwich ELISA (Duo-set, R&D systems) and read on the fluorescence microplate reader (Varioskan® Flash, ThermoFisher Scientific). The concentration at 50% inhibition (IC50) of IL-8 and TNFα production is calculated from the dose response curve.

p38 MAPKα = p38 MAPKα (Homo sapiens (Human), UniProt Q16539); assay: p38 MAPKα enzyme inhibition (Method 2), Z-LYTE FRET; type: biochemical
Chain of p38 MAPKα (Q16539 whole entry): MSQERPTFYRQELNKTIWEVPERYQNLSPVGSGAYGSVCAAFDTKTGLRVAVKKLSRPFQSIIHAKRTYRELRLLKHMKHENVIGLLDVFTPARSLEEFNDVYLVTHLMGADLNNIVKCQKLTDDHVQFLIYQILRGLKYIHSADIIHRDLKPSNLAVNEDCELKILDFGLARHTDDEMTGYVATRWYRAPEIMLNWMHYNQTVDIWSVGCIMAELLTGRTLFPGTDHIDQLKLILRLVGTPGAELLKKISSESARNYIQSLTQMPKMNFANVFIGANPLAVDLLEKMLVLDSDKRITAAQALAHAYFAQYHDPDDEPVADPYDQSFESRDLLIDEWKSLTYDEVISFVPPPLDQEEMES
Description: as §1
The inhibitory activities of test compounds against the p38 MAPKα isoform (MAPK14: Invitrogen), are evaluated indirectly by determining the level of activation/phosphorylation of the down-stream molecule, MAPKAP-K2. The p38 MAPKα protein (80 ng/mL, 2.5 μL) is mixed with the test compound (2.5 μL of either 4 μg/mL, 0.4 μg/mL, 0.04 μg/mL or 0.004 μg/mL) for 2 hr at RT. […] The mixture is incubated for 1 hr at RT. Development reagent (protease, […]) is added for 1 hr prior to detection in a fluorescence microplate reader (Varioskan® Flash, ThermoFisher Scientific).
This method follows the same steps as Method 1 above, but utilises a higher concentration of the p38 MAPKα protein (2.5 μL of 200 ng/mL protein instead of 2.5 μL of 80 ng/mL protein) for mixing with the test compound.
as §2

PBMCs [3] = assay: IL-2 and IFN gamma release in CD3/CD28 stimulated PBMC cells; type: cell-based; details: Homo sapiens
Description: PBMCs from healthy subjects are separated from whole blood using a density gradient (Lymphoprep, Axis-Shield Healthcare). Cells are added to a 96 well plate pre-coated with a mixture of CD3/CD38 monoclonal antibodies (0.3 μg/mL eBioscience and 3 μg/mL BD Pharmingen respectively). Compound at the desired concentration is then added to the wells and the plate left for 3 days under normal tissue culture conditions. Supernatants are harvested and IL-2 and IFN gamma release determined by Sandwich ELISA (Duo-set, R&D System). The IC50 is determined from the dose response curve.

Syk = Syk (Homo sapiens (Human), UniProt P43405); assay: Syk enzyme inhibition, Z-LYTE FRET; type: biochemical
Description: as §1
(§3) The inhibitory activities of compounds of the invention against c-Src and Syk enzymes (Invitrogen), are evaluated in a similar fashion to that described hereinabove. The relevant enzyme (3000 ng/mL or 2000 ng/mL respectively, 2.5 μL) is incubated with the test compound (either 4 μg/mL, 0.4 μg/mL, 0.04 μg/mL, or 0.004 μg/mL, 2.5 μL each) for 2 hr at RT. The FRET peptides (8 μM. 2.5 μL), and appropriate ATP solutions (2.5 μL, 800 μM for c-Src, and 60 μM ATP for Syk) are then added to the enzymes/compound mixtures and incubated for 1 hr. Development reagent (protease, 5 μL) is added for 1 hr prior to detection in a fluorescence microplate reader (Varioskan® Flash, ThermoFisher Scientific).
as §2

c-Src = c-Src (Homo sapiens (Human), UniProt P12931); assay: c-Src enzyme inhibition, Z-LYTE FRET; type: biochemical
Chain of c-Src (P12931 whole entry, looked up): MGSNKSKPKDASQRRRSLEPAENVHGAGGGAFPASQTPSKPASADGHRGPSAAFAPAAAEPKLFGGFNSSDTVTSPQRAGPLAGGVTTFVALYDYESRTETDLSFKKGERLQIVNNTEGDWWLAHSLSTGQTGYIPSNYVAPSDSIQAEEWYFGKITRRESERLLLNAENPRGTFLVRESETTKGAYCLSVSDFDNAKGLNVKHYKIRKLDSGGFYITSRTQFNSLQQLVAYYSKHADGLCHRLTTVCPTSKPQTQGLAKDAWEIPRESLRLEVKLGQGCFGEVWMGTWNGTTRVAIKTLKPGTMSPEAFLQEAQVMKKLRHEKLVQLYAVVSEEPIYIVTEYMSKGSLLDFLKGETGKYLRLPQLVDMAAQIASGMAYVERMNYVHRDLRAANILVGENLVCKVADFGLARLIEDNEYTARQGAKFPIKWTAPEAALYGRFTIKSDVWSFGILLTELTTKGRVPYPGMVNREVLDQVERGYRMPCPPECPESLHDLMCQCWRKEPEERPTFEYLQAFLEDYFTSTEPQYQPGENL
Description: as §1, §3, §2

[4] = IL-2, read-out: IC50 Values for Inhibition of Cytokine Release PBMCs IL-2

Row | SMILES | IC50 (GSK3α) | IC50 (PBMCs [2]) | also measured
1 | CCCC1O[C@@H]2C[C@H]3[C@@H]4CCC5=CC(=O)C=C[C@]5(C)[C@H]4[C@@H](O)C[C@]3(C)[C@]2(C(=O)CO)O1 (stereo partly shown) [Budesonide, reference compound] | – | – | LP inflammation ([1]; TNBS + Vehicle 3.9 ± 0.3): 2.5 ± 0.4; Ulcer grade ([1]; TNBS + Vehicle 4.0 ± 0.5): 2.9 ± 0.6
2 | C#CC(C)(C)c1cc(NC(=O)Nc2ccc(Oc3ccnc(Nc4ccccc4)c3)c3ccccc23)n(-c2ccc(C)cc2)n1 [Example 7, 1-(3-(2-Methylbut-3-yn-2-yl)-1-(p-tolyl)-1H-pyrazol-5-yl)-3-(4-((2-(phenylamino)pyridin-4-yl)oxy)naphthalen-1-yl)urea] | > 10000 nM | 4 nM | IC50 (p38 MAPKα): 271 nM; IC50 (PBMCs [3]; IFNγ, read-out: IC50 Values for Inhibition of Cytokine Release PBMCs IFNγ): 21.8 nM; IC50 (PBMCs [3]; [4]): 139 nM; IC50 (Syk): 185 nM; IC50 (c-Src): 81 nM
3 | C#CC(C)(C)c1cc(NC(=O)Nc2ccc(Oc3ccnc(Nc4cc(C)c5[nH]ncc5c4)n3)c(Cl)c2Cl)n(-c2ccc(C)cc2)n1 [Example 9, 1-(2,3-Dichloro-4-((2-((7-methyl-1H-indazol-5-yl)amino)pyrimidin-4-yl)oxy)phenyl)-3-(3-(2-methylbut-3-yn-2-yl)-1-(p-tolyl)-1H-pyrazol-5-yl)urea] | > 10000 nM | 7.6 nM | –
4 | C#CC(C)(C)c1cc(NC(=O)Nc2ccc(Oc3ccnc(Nc4cc(OCCN(C)C)ccn4)n3)c3ccccc23)n(-c2ccc(C)cc2)n1 [Example 11, 1-(4-((2-((4-(2-(Dimethylamino)ethoxy)pyridin-2-yl)amino)pyrimidin-4-yl)oxy)naphthalen-1-yl)-3-(3-(2-methylbut-3-yn-2-yl)-1-(p-tolyl)-1H-pyrazol-5-yl)urea] | > 10000 nM | 10.8 nM | –
5 | C#CC(C)(C)c1cc(NC(=O)Nc2ccc(Oc3ccnc(Nc4cccc(OCCN5CCOCC5)n4)n3)c3ccccc23)n(-c2ccc(C)cc2)n1 [Example 16, 1-(3-(2-Methylbut-3-yn-2-yl)-1-(p-tolyl)-1H-pyrazol-5-yl)-3-(4-((2-((6-(2-morpholinoethoxy)pyridin-2-yl)amino)pyrimidin-4-yl)oxy)naphthalen-1-yl)urea] | > 10000 nM | 17.7 nM | IC50 (p38 MAPKα): 148 nM; IC50 (Syk): 348 nM; IC50 (c-Src): 21 nM
6 | C#CC(C)(C)c1cc(NC(=O)Nc2ccc(Oc3ccnc(Nc4cccc(OCCOCCOCCOC)n4)n3)c3ccccc23)n(-c2ccc(C)cc2)n1 [Example 17, 1-(4-((2-((6-(2-(2-(2-Methoxyethoxy)ethoxy)ethoxy)pyridin-2-yl)amino)pyrimidin-4-yl)oxy)naphthalen-1-yl)-3-(3-(2-methylbut-3-yn-2-yl)-1-(p-tolyl)-1H-pyrazol-5-yl)urea] | > 10000 nM | 30.4 nM | –

Now from value to molecule, other results behind:

Row | IC50 (GSK3α) | SMILES | IC50 (PBMCs [2]) | also measured
7 | 539 nM | C#CC(C)(C)c1cc(NC(=O)Nc2ccc(Oc3ccnc(Nc4cc(OC)cc(C(=O)NCCN5CCOCC5)c4)n3)c3ccccc23)n(-c2ccc(C)cc2)n1 [Example 4, 3-Methoxy-5-((4-((4-(3-(3-(2-methylbut-3-yn-2-yl)-1-(p-tolyl)-1H-pyrazol-5-yl)ureido)-naphthalen-1-yl)oxy)pyrimidin-2-yl)amino)-N-(2-morpholinoethyl)benzamide] | 0.5 nM | –
8 | 602 nM | C#CC(C)(C)c1cc(NC(=O)Nc2ccc(Oc3ccnc(Nc4cccc(OCCN5CCOCC5)c4)n3)c3ccccc23)n(-c2ccc(C)cc2)n1 [Example 5, 1-(3-(2-Methylbut-3-yn-2-yl)-1-(p-tolyl)-1H-pyrazol-5-yl)-3-(4-((2-((3-(2-morpholinoethoxy)phenyl)amino)pyrimidin-4-yl)oxy)naphthalen-1-yl)urea] | 1 nM | –
9 | 243 nM | C#CC(C)(C)c1cc(NC(=O)Nc2ccc(Oc3ccnc(Nc4cccc(OCCN(C)C)c4)n3)c3ccccc23)n(-c2ccc(C)cc2)n1 [Example 6, 1-(4-((2-((3-(2-(Dimethylamino)ethoxy)phenyl)amino)pyrimidin-4-yl)oxy)naphthalen-1-yl)-3-(3-(2-methylbut-3-yn-2-yl)-1-(p-tolyl)-1H-pyrazol-5-yl)urea] | 0.6 nM | –
10 | 2570 nM | C#CC(C)(C)c1cc(NC(=O)Nc2ccc(Oc3ccnc(Nc4cc(OC)cc(OCCN5CCOCC5)c4)n3)c3ccccc23)n(-c2ccc(C)cc2)n1 [Example 8, 1-(4-((2-((3-Methoxy-5-(2-morpholinoethoxy)phenyl)amino)pyrimidin-4-yl)oxy)-naphthalen-1-yl)-3-(3-(2-methylbut-3-yn-2-yl)-1-(p-tolyl)-1H-pyrazol-5-yl)urea] | 1.4 nM | IC50 (Syk): 31 nM; IC50 (c-Src): 22 nM
11 | 1760 nM | C#CC(C)(C)c1cc(NC(=O)Nc2ccc(Oc3ccnc(Nc4cccc(OCCN(C)C)n4)n3)c3ccccc23)n(-c2ccc(C)cc2)n1 [Example 10, 1-(4-((2-((6-(2-(Dimethylamino)ethoxy)pyridin-2-yl)amino)pyrimidin-4-yl)oxy)naphthalen-1-yl)-3-(3-(2-methylbut-3-yn-2-yl)-1-(p-tolyl)-1H-pyrazol-5-yl)urea] | 1.7 nM | IC50 (p38 MAPKα): 46 nM; IC50 (PBMCs [3]; [4]): 7.1 nM

Source: patent US9790209B2, “Kinase inhibitors” (Respivert Limited, priority 2012, dated 2017)
